Laboratory results: US20130084272A1, “COMPOSITIONS, KITS AND METHODS FOR NUTRITIONAL SUPPLEMENTATION WITH TWELVE CARBON CHAIN FATTY ACIDS AND TWELVE CARBON CHAIN ACYLGLYCEROLS” (priority 2011, published 2013)
Where two headings read alike, the source gives them in different places.

Experiments:
[1] = in vivo
Description: Fourteen lactating women drink two test formulas, each containing a different fat: menhaden oil, and coconut oil. The subjects collect a midfeeding milk sample before consuming the breakfast test formula and additional samples at 6, 10, 14, and 24 h and then once daily for 4-7 d. Fatty acids of special interest included eicosapentaenoic and docosahexaenoic acids from menhaden oil, and lauric acid from coconut oil.

[2] = Francois et al. 1998; cited from earlier work
[3] = for Lauric acid content of milk: lactating women, baseline 3.9%
Excerpt: Fifty women will partake in the study. Lactating women aged 19-43 y participate in the study during the first 6 months of lactation. The women remain in the study for about 10 weeks including a 2-wk washout period between consumption of the test fatty acids. The diets of the subjects remain constant during the study. […] Subjects consume the coconut oil composition once in 2-wk intervals. A 40 g coconut oil composition is consumed in the morning by each patient in place of breakfast. Subjects collect milk samples once in the morning before consuming the test formula; once at each of the following time points after consuming the formula: 6, 10, 14, and 24 h; and once daily for 4-7 days.

[4] = system: bacteria; conditions: Batovska et al. 2009; cited from earlier work

Structure (SMILES) | Time remaining significantly elevated in milk ([1]; human) [days] | Time of maximum increase in human milk [1] [h] | Time to significant increase in human milk after consumption of the test formula [1] [h] | Time to significant increase in human milk after consumption by the lactating mother [2] [h] | Milk content of lauric acid over time ([3]; ingestion of formula containing 40 g coconut oil, P<0.001) | Lauric acid content of milk ([3]; 10 h after consuming 40 g coconut oil composition) | Lauric acid content of milk ([3]; 14 hr after consuming 40 g coconut oil composition) | Antibacterial activity among medium chain fatty acids and their monoacylglycerols [4]
CC/C=C\C/C=C\C/C=C\C/C=C\C/C=C\C/C=C\CCC(=O)O [docosahexaenoic acid] | 2 | 24 | ≤ 6 | – | – | – | – | –
CC/C=C\C/C=C\C/C=C\C/C=C\C/C=C\CCCC(=O)O [eicosapentaenoic acid] | – | 14 | ≤ 6 | – | – | – | – | –
CCCCCCCCCCCC(=O)O [lauric acid] | – | 14 | ≤ 6 | ≤ 6 | increases | 9.2 % of fatty acids | 9.6 % of fatty acids | –
CCCCCCCCCCCC(=O)OCC(O)CO (stereo not drawn) [monolaurin, glycerol monolaurate] | – | – | – | – | – | – | – | most active
